This test deals with TNFα secretion in white blood cells from human buffy coat stimulated with phorbol 12-myristate 13-acetate and ionomycin. Kind of test: TNFα secretion assay. As to conditions: for inhibition at 0.5 µM: read-out: % inhibition of TNFα secretion, Rolipram 0.5 μM; for inhibition at 1 µM: read-out: % inhibition of TNFα secretion, Rolipram 1 μM; for inhibition at 0.2 µM: read-out: percent inhibition of TNFα secretion, Amoxapine 0.2 μM; for inhibition at 0.4 µM: read-out: percent inhibition of TNFα secretion, Amoxapine 0.4 μM; for inhibition at 0.8 µM: read-out: percent inhibition of TNFα secretion, Amoxapine 0.8 μM; for inhibition at 13 µM: read-out: percent inhibition of TNFα secretion, Amoxapine 13 μM; for inhibition at 25 µM: read-out: percent inhibition of TNFα secretion, Amoxapine 25 μM.

Where [1] appears, read: Homo sapiens, Bromodiphenhydramine HCl μM r5-r13: 0,0.21,0.43,0.85,1.7,3.4,6.8,14,27.
[2] abbreviates: Homo sapiens, Cyproheptadine HCl μM r5-r13: 0,0.24,0.48,0.96,1.9,3.9,7.7,15,31.
[3] abbreviates: Homo sapiens, Loratadine μM r5-r13: 0,0.2,0.41,0.82,1.6,3.3,6.5,13,26.
Setting [4] is: Homo sapiens, Thiethylperazine Maleate μM r5-r13: 0,0.2,0.39,0.78,1.6,3.1,6.3,13,25.
The mark [5] stands for this setting: Homo sapiens, Bromodiphenhydramine HCl μM: 0/0.21/0.43/0.85/1.7/3.4/6.8/14/27.
Setting [6] is: Homo sapiens, Cyproheptadine HCl μM: 0/0.24/0.48/0.96/1.9/3.9/7.7/15/31.
The mark [7] stands for this setting: Homo sapiens, Loratadine 0/0.2/0.41/0.82/1.6/3.3/6.5/13/26 μM.
Setting [8] is: Homo sapiens, Thiethylperazine Maleate μM: 0/0.2/0.39/0.78/1.6/3.1/6.3/13/25.

SMILES strings stand for the structures. Values joined by “and” are separate entries in the source; they are usually repeats but may differ in a detail not shown here. Identical values can stand only once. Counter-ions that a name gives are not always drawn. Like-named read-outs stand apart in the source and are kept apart here.

Protocol: Drugs were added to the indicated concentration. […] The plate was then washed again with 0.1% Tween 20/PBS. An HRP-luminescent substrate was added to each well, and the light intensity of each well was measured using a plate luminometer.

For `Clc1ccc(Cn2c(CN3CCCC3)nc3ccccc32)cc1` [Clemizole HCl, clemizole], the inhibition at 14 µM was -11.9% (Homo sapiens, read-out: percent inhibition (dose matrix), Table 96, Clemizole HCl 14 μM, Amoxapine 0-25 μM); 5.46% (Homo sapiens, read-out: percent inhibition (dose matrix), Table 97, Clemizole HCl 14 μM, Nortriptyline HCl 0-33 μM per row (c1)); 0.085% (Homo sapiens, read-out: percent inhibition (dose matrix), Table 98, Clemizole HCl 14 μM, Paroxetine HCl 0-27 μM per row (c1)); 9.15% (Homo sapiens, read-out: percent inhibition (dose matrix), Table 103, Clemizole HCl 14 μM, Fluoxetine HCl 0-29 μM); 3.19% (Homo sapiens, read-out: percent inhibition (dose matrix), Table 107, Clemizole HCl 14 μM, Desipramine HCl 0-32 μM per row (c1)); 4.65% (Homo sapiens, read-out: percent inhibition (dose matrix), Table 108, Clemizole HCl 14 μM, Sertraline HCl 0-32 μM per row (c1)). Moreover, the inhibition at 14 µM runs as follows: (Homo sapiens, read-out: percent inhibition of TNFα secretion, Clemizole HCl 14 μM, Amoxapine μM r5-r13: 0,0.2,0.4,0.8,1.6,3.2,6.4,13,25) 20%; (Homo sapiens, read-out: percent inhibition of TNFα secretion, Clemizole HCl 14 μM, Desipramine HCl: 0/0.25/0.5/1/2/4/8/16/32 μM) 26.4%; (Homo sapiens, read-out: percent inhibition of TNFα secretion, Clemizole HCl 14 μM, Fluoxetine HCl μM: 0/0.23/0.45/0.9/1.8/3.6/7.2/14/29) 26.1%; (Homo sapiens, read-out: percent inhibition of TNFα secretion, Clemizole HCl 14 μM, Paroxetine HCl μM r5-r13: 0,0.21,0.42,0.83,1.7,3.3,6.7,13,27) 22.4%; (Homo sapiens, read-out: percent inhibition of TNFα secretion, Clemizole HCl 14 μM, Sertraline HCl by grid row r5-r13: 0/0.25/0.49/0.99/2/4/7.9/16/32 μM) 24.5%. The inhibition at 28 µM (Homo sapiens, read-out: percent inhibition (dose matrix), Table 96, Clemizole HCl 28 μM, Amoxapine 0-25 μM) came out at 0.658%; the inhibition at 28 µM (Homo sapiens, read-out: percent inhibition (dose matrix), Table 97, Clemizole HCl 28 μM, Nortriptyline HCl 0-33 μM per row (c1)) turned out to be 19.5%; the inhibition at 28 µM (Homo sapiens, read-out: percent inhibition (dose matrix), Table 98, Clemizole HCl 28 μM, Paroxetine HCl 0-27 μM per row (c1)) was -7.43%; the inhibition at 28 µM (Homo sapiens, read-out: percent inhibition (dose matrix), Table 103, Clemizole HCl 28 μM, Fluoxetine HCl 0-29 μM) is 9.27%; the inhibition at 28 µM (Homo sapiens, read-out: percent inhibition (dose matrix), Table 107, Clemizole HCl 28 μM, Desipramine HCl 0-32 μM per row (c1)) was determined as 14.9%; the inhibition at 28 µM (Homo sapiens, read-out: percent inhibition (dose matrix), Table 108, Clemizole HCl 28 μM, Sertraline HCl 0-32 μM per row (c1)) turned out to be 16.9%. Moreover, the inhibition at 28 µM was determined as 42.5% (Homo sapiens, read-out: percent inhibition of TNFα secretion, Clemizole HCl 28 μM, Amoxapine μM r5-r13: 0,0.2,0.4,0.8,1.6,3.2,6.4,13,25); 41.4% (Homo sapiens, read-out: percent inhibition of TNFα secretion, Clemizole HCl 28 μM, Desipramine HCl: 0/0.25/0.5/1/2/4/8/16/32 μM); 34.1% (Homo sapiens, read-out: percent inhibition of TNFα secretion, Clemizole HCl 28 μM, Fluoxetine HCl μM: 0/0.23/0.45/0.9/1.8/3.6/7.2/14/29); 42.1% (Homo sapiens, read-out: percent inhibition of TNFα secretion, Clemizole HCl 28 μM, Paroxetine HCl μM r5-r13: 0,0.21,0.42,0.83,1.7,3.3,6.7,13,27); 43.3% (Homo sapiens, read-out: percent inhibition of TNFα secretion, Clemizole HCl 28 μM, Sertraline HCl by grid row r5-r13: 0/0.25/0.49/0.99/2/4/7.9/16/32 μM). In addition, under “prednisolone […], clemizole HCl r5-r13: 0,0.22,0.43,0.86,1.7,3.5,6.9,14,28 μM”, the “inhibition of TNFα secretion” value is 28.
Regarding `COc1ccc(C2CNC(=O)C2)cc1OC1CCCC1` (stereo not shown) [Rolipram], the inhibition at 0.5 µM was 37% under setting [1], 44% under setting [2], 43% under setting [3] and 38% under setting [4]. For the same molecule, the inhibition at 1 µM is, setting by setting: under setting [1], 44%; under setting [2], 38%; under setting [3], 50%; under setting [4], 39%.
Regarding `CNCCC(Oc1ccc(C(F)(F)F)cc1)c1ccccc1` (racemic) [Fluoxetine HCl, (±)-N-methyl-3-phenyl-3-[((alpha),(alpha),(alpha)-trifluoro-p-tolyl)oxy]propylamine hydrochloride], the inhibition at 0.9 µM (Homo sapiens, read-out: percent inhibition of TNFα secretion, Fluoxetine HCl 0.9 μM, Cyproheptadine HCl: 0/0.24/0.48/0.96/1.9/3.9/7.7/15/31 μM) is -1.1%. Besides, the inhibition at 14 µM (Homo sapiens, read-out: percent inhibition of TNFα secretion, Fluoxetine HCl 14 μM, Cyproheptadine HCl: 0/0.24/0.48/0.96/1.9/3.9/7.7/15/31 μM) was found to be 16%. For the same molecule, the inhibition at 29 µM (Homo sapiens, read-out: percent inhibition of TNFα secretion, Fluoxetine HCl 29 μM, Cyproheptadine HCl: 0/0.24/0.48/0.96/1.9/3.9/7.7/15/31 μM) was determined as 41%. Further, for the setting “Promethazine HCl 0 μM, Fluoxetine HCl μM r5-r13: 0,0.23,0.45,0.9,1.8,3.6,7.2,14,29, hydrochloride”, the “percent inhibition of TNFα secretion” value was 1.71% and −2.67% and 4.37% and 2.89% and −0.34% and −0.46% and −0.103% and 4.12%.
Regarding `Clc1ccc2c(c1)C(N1CCNCC1)=Nc1ccccc1O2` [Amoxapine, amoxapine], under setting [5], the inhibition at 0.2 µM amounted to 4.3%, the inhibition at 0.4 µM came out at 13%, the inhibition at 0.8 µM came out at 20% and the inhibition at 13 µM stood at 80%. The inhibition at 25 µM under setting [5] amounted to 92%. Under setting [6], the inhibition at 0.2 µM came out at 3.5%, the inhibition at 0.4 µM was 9.8%, the inhibition at 0.8 µM amounted to 17% and the inhibition at 13 µM amounted to 85%. Further, the inhibition at 25 µM under setting [6] was 94%. Besides, under setting [7], the inhibition at 0.2 µM worked out at 7.52%, the inhibition at 0.4 µM is 11.2%, the inhibition at 0.8 µM is 22.2% and the inhibition at 13 µM is 83.7%. The inhibition at 25 µM under setting [7] turned out to be 88.2%. Under setting [8], the inhibition at 0.2 µM worked out at 12%, the inhibition at 0.4 µM came to 12%, the inhibition at 0.8 µM stood at 24% and the inhibition at 13 µM worked out at 74%. The inhibition at 25 µM under setting [8] is 83%.

(Values after patent US20050192261A1, “Methods and reagents for the treatment of immunoinflammatory disorders” (priority 2003, published 2005).)
